Activity calls are given as the source filed them. The rule behind the calls is not given here.
What was measured:
Cholinesterase = Cholinesterase (Equus caballus, UniProt P81908); experiment: Inhibition of equine serum BuChE using butyrylthiocholine iodide as substrate preincubated for 5 mins followed by substrate addition measured after 2 mins by Ellman's method; type: ADME
SH-SY5Y [1] = experiment: Neuroprotective activity against H2O2-induced oxidative stress in human SH-SY5Y cells assessed as inhibition of ROS accumulation after 24 hrs by DCFH-DA probe based fluorescence assay; type: functional, cell-based
[2] = Cytotoxicity against human SH-SY5Y cells assessed as cell viability at 25 uM after 48 hrs by MTT assay relative to control; type: toxicity, cell-based; settings: read-out: Activity
[3] = Cytotoxicity against human SH-SY5Y cells assessed as reduction in cell viability after 48 hrs by MTT assay; type: toxicity, cell-based
[4] = Cytotoxicity against human SH-SY5Y cells assessed as cell viability at 10 uM after 48 hrs by MTT assay relative to control; type: toxicity, cell-based; settings: read-out: Activity
SH-SY5Y [5] = experiment: Neuroprotective activity against amyloid beta (1 to 42)-induced morphological changes in human SH-SY5Y cells assessed as decrease in loss of adherence at 20 uM after 48 hrs by phase contrast microscopic method; type: functional, cell-based
[6] = Cytotoxicity against human SH-SY5Y cells assessed as cell viability at 50 uM after 48 hrs by MTT assay relative to control; type: toxicity, cell-based; settings: read-out: Activity
SH-SY5Y [7] = experiment: Neuroprotective activity against amyloid beta (1 to 42)-induced morphological changes in human SH-SY5Y cells assessed as decrease in shrinked cell body at 20 uM after 48 hrs by phase contrast microscopic method; type: functional, cell-based
Acetylcholinesterase = Acetylcholinesterase (Electrophorus electricus, UniProt O42275); experiment: Inhibition of Electric eel AChE using acetylthiocholine iodide as substrate preincubated for 5 mins followed by substrate addition measured after 2 mins by Ellman's method
SH-SY5Y [8] = experiment: Neuroprotective activity against H2O2-induced morphological changes in human SH-SY5Y cells assessed as decrease in floated appearance at 20 uM after 24 hrs by phase contrast microscopic method; type: functional, cell-based
[9] = Cytotoxicity against human SH-SY5Y cells assessed as cell viability at 100 uM after 48 hrs by MTT assay relative to control; type: toxicity, cell-based; settings: read-out: Activity
SH-SY5Y [10] = experiment: Neuroprotective activity against H2O2-induced oxidative stress in human SH-SY5Y cells assessed as increase in cell viability at 10 uM after 24 hrs by MTT assay; type: functional, cell-based
SH-SY5Y [11] = experiment: Neuroprotective activity against amyloid beta (1 to 42)-induced morphological changes in human SH-SY5Y cells assessed as decrease in fragmented or rounded floating cells at 20 uM after 48 hrs by phase contrast microscopic method; type: functional, cell-based
SH-SY5Y [12] = experiment: Neuroprotective activity against amyloid beta (1 to 42)-induced neurodegeneration in human SH-SY5Y cells assessed as increase in cell viability at 20 uM after 48 hrs by MTT assay; type: functional, cell-based
SH-SY5Y [13] = experiment: Neuroprotective activity against amyloid beta (1 to 42)-induced morphological changes in human SH-SY5Y cells assessed as decrease in fading synapses at 20 uM after 48 hrs by phase contrast microscopic method; type: functional, cell-based
[14] = Effect on basal ROS level in human SH-SY5Y cells at 5 to 20 uM after 24 hrs by DCFH-DA probe based fluorescence assay; type: ADME, cell-based
[15] = target: T1, Amyloid-beta precursor protein (Homo sapiens, UniProt P05067); experiment: Inhibition of HFIP-pretreated amyloid beta (1 to 42) (unknown origin) self-induced aggregation at 25 uM after 48 hrs by thioflavin-T fluorescence assay relative to control
SH-SY5Y [16] = experiment: Neuroprotective activity against H2O2-induced morphological changes in human SH-SY5Y cells assessed as decrease in cell vacuolation at 20 uM after 24 hrs by phase contrast microscopic method; type: functional, cell-based
[17] = Cytotoxicity against human SH-SY5Y cells assessed as cell viability at 1 uM after 48 hrs by MTT assay relative to control; type: toxicity, cell-based; settings: read-out: Activity
[18] = target: T1, Amyloid-beta precursor protein; experiment: Inhibition of HFIP-pretreated amyloid beta (1 to 42) (unknown origin) self-induced aggregation after 48 hrs by thioflavin-T fluorescence assay
[19] = Antioxidant activity assessed as trolox equivalent of AAPH radical scavenging activity at 1 to 25 uM preincubated for 15 mins followed by AAPH addition measured every min for 80 mins by ORAC-FL assay; type: functional
[20] = Cytotoxicity against human SH-SY5Y cells assessed as cell viability at 75 uM after 48 hrs by MTT assay relative to control; type: toxicity, cell-based; settings: read-out: Activity
[21] = Cytotoxicity against human SH-SY5Y cells assessed as cell viability at 5 uM after 48 hrs by MTT assay relative to control; type: toxicity, cell-based; settings: read-out: Activity
SH-SY5Y [22] = experiment: Neuroprotective activity against H2O2-induced morphological changes in human SH-SY5Y cells assessed as decrease in cell rounding at 20 uM after 24 hrs by phase contrast microscopic method; type: functional, cell-based
[23] = Selectivity index, ratio of IC50 for equine serum BuChE to IC50 for Electric eel AChE
[24] = target: T1, Amyloid-beta precursor protein; experiment: Potency index, ratio of compound effect to curcumin effect for inhibition of HFIP-pretreated amyloid beta (1 to 42) (unknown origin) self-induced aggregation at 25 uM
SH-SY5Y [25] = experiment: Neuroprotective activity against H2O2-induced oxidative stress in human SH-SY5Y cells assessed as increase in cell viability at 20 uM after 24 hrs by MTT assay; type: functional, cell-based
[26] = target: T1, Amyloid-beta precursor protein; experiment: Inhibition of amyloid beta (1 to 42) (unknown origin) fibril formation at 25 uM after 48 hrs by uranyl acetate staining based transmission electron microscopic method
[27] = target: Acetylcholinesterase (Electrophorus electricus) (UniProt O42275); experiment: Mixed-type inhibition of Electric eel AChE at 10 to 40 nM using varying levels of acetylthiocholine iodide as substrate preincubated for 15 mins followed by substrate addition by Lineweaver-Burk plot analysis
SH-SY5Y [28] = experiment: Neuroprotective activity against H2O2-induced oxidative stress in human SH-SY5Y cells assessed as inhibition of ROS accumulation at 10 to 20 uM after 24 hrs by DCFH-DA probe based fluorescence assay; type: functional, cell-based
SH-SY5Y [29] = experiment: Neuroprotective activity against amyloid beta (1 to 42)-induced neurodegeneration in human SH-SY5Y cells assessed as increase in cell viability at 10 uM after 48 hrs by MTT assay; type: functional, cell-based
[30] = target: T1, Amyloid-beta precursor protein; experiment: Potency index, ratio of curcumin IC50 to compound IC50 for HFIP-pretreated amyloid beta (1 to 42) (unknown origin) self-induced aggregation
SH-SY5Y [31] = experiment: Neuroprotective activity against H2O2-induced oxidative stress in human SH-SY5Y cells assessed as increase in cell viability at 5 to 20 uM after 24 hrs by MTT assay; type: functional, cell-based

Acetylcholinesterase, sequence (O42275 whole entry): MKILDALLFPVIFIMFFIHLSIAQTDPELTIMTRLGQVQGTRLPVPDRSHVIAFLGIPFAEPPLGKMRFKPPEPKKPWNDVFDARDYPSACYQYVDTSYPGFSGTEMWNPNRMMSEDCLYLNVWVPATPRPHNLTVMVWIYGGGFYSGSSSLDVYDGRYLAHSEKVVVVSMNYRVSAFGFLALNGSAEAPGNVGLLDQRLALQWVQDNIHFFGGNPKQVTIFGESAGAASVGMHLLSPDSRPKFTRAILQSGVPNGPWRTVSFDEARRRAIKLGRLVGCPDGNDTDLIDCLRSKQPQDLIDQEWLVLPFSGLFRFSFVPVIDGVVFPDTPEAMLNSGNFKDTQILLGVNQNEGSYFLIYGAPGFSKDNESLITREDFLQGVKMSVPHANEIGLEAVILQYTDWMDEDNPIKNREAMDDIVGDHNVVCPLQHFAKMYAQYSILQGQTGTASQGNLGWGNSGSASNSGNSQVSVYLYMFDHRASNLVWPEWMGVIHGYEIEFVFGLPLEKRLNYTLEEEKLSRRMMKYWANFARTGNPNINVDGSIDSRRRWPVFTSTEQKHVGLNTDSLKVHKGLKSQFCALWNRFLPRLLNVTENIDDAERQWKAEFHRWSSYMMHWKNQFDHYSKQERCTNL
T1 sequence (P05067 whole entry): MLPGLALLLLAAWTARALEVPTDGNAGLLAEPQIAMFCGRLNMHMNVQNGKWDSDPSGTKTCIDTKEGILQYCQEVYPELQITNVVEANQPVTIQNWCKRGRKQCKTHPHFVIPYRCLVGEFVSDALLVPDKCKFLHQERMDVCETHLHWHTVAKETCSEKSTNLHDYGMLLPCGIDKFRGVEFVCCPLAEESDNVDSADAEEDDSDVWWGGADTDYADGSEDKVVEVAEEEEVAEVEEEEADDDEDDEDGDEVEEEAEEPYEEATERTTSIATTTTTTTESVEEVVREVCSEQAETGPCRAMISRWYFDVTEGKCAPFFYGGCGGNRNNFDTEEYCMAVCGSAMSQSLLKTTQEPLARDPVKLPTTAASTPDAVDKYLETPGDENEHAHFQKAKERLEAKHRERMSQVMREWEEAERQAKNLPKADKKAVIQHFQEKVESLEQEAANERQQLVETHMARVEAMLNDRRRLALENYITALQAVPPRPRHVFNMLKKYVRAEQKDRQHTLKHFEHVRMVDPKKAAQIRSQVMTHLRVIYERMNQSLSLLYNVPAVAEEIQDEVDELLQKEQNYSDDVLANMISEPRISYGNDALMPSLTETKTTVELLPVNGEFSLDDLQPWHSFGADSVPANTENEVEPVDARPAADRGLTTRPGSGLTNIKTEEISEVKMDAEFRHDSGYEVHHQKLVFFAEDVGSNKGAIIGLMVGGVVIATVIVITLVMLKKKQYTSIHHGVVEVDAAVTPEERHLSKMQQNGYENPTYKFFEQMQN
Cholinesterase, sequence (P81908 whole entry): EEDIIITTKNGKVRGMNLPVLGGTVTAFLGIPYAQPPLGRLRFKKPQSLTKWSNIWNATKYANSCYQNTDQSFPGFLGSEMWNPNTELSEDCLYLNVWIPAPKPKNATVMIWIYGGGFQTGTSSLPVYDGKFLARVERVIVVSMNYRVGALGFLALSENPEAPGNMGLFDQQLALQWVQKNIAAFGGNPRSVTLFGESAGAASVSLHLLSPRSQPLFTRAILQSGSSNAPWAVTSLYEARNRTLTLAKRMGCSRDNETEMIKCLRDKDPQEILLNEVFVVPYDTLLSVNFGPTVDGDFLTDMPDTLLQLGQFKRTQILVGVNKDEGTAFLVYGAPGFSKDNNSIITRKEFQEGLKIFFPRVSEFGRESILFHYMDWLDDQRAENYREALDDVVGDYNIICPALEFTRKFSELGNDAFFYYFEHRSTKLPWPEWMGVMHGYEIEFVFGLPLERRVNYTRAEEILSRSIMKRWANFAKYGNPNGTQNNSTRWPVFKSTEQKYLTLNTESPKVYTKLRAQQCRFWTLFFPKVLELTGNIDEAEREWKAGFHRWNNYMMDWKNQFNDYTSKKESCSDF
Acetylcholinesterase (Electrophorus electricus), sequence (O42275 24-633 limits assumed): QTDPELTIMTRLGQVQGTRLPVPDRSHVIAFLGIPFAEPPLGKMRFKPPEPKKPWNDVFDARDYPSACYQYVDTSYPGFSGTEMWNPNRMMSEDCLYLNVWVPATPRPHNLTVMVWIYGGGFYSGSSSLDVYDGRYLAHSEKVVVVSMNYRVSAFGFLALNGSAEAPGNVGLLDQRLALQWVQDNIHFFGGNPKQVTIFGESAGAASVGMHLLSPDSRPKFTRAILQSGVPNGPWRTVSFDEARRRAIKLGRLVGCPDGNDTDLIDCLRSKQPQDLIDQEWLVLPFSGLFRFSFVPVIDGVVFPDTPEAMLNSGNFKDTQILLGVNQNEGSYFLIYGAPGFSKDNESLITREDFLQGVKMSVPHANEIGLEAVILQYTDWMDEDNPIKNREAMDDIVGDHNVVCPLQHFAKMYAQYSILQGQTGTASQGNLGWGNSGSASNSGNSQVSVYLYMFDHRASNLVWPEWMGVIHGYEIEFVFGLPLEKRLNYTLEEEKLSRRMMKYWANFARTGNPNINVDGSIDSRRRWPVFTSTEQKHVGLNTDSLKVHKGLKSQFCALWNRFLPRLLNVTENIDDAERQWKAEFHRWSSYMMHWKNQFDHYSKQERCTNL

COc1cc2c(cc1OC)C(=O)/C(=C/c1ccc(N3CCN(C(=O)c4ccoc4)CC3)cc1)C2
IC50 (Cholinesterase): 1.97 µM
inhibition (SH-SY5Y [1]): Dose-dependent effect
viability at 48 h, 25 µM [2]: 90.1%
Activity [3]: Dose-dependent effect
viability at 48 h, 10 µM [4]: 92.3%
Activity (SH-SY5Y [5]): Active
viability at 48 h, 50 µM [6]: 86.9%
Activity (SH-SY5Y [7]): Active
IC50 (Acetylcholinesterase): 0.034 µM
Activity (SH-SY5Y [8]): Active
viability at 48 h, 100 µM [9]: 81.1%
Activity (SH-SY5Y [10]): Active
Activity (SH-SY5Y [11]): Active
Activity (SH-SY5Y [12]): Active
Activity (SH-SY5Y [13]): Active
Activity [14]: Non-Toxic
inhibition [15]: 80.4%
Activity (SH-SY5Y [16]): Active
viability at 48 h, 1 µM [17]: 96%
IC50 [18]: 10.9 µM
Activity (umolequiv/umol) [19]: 3.89
viability at 48 h, 75 µM [20]: 83.7%
viability at 48 h, 5 µM [21]: 94.4%
Activity (SH-SY5Y [22]): Active

COc1cc2c(cc1OC)C(=O)/C(=C/c1ccc(N3CCN(c4ccc(F)cc4)CC3)cc1)C2
IC50 (Cholinesterase): 3.24 µM
Ratio IC50 [23]: 6.1
IC50 (Acetylcholinesterase): 0.528 µM
inhibition [15]: 66.8%
Activity (umolequiv/umol) [19]: 1.93

COc1ccc(N2CCN(c3ccc(/C=C4\Cc5cc(OC)c(OC)cc5C4=O)cc3)CC2)cc1
IC50 (Cholinesterase): 0.603 µM
Ratio IC50 [23]: 5.06
IC50 (Acetylcholinesterase): 0.119 µM
inhibition [15]: 70.5%
Ratio [24]: 1.26
Activity (umolequiv/umol) [19]: 3.39

COc1cc2c(cc1OC)C(=O)/C(=C/c1ccc(N3CCN(c4ncccn4)CC3)cc1)C2
IC50 (Cholinesterase): 2.43 µM
viability at 48 h, 25 µM [2]: 92.8%
Activity [3]: Dose-dependent effect
viability at 48 h, 10 µM [4]: 94.7%
Activity (SH-SY5Y [5]): Active
viability at 48 h, 50 µM [6]: 89.3%
Activity (SH-SY5Y [7]): Active
Ratio IC50 [23]: 97.3
IC50 (Acetylcholinesterase): 0.025 µM
Activity (SH-SY5Y [8]): Active
viability at 48 h, 100 µM [9]: 82.4%
Activity (SH-SY5Y [25]): Active
Activity (SH-SY5Y [11]): Active
inhibition [26]: Active
Activity (SH-SY5Y [13]): Active
inhibition [15]: 81.6%
inhibition [27]: Active
Activity (SH-SY5Y [16]): Active
inhibition (SH-SY5Y [28]): Active
viability at 48 h, 1 µM [17]: 98.5%
IC50 [18]: 9.9 µM
Activity (umolequiv/umol) [19]: 2.34
Activity (SH-SY5Y [29]): Active
viability at 48 h, 75 µM [20]: 85.7%
viability at 48 h, 5 µM [21]: 96.1%
Activity (SH-SY5Y [22]): Active

COc1cc2c(cc1OC)C(=O)/C(=C/c1ccc(N3CCN(c4ccc(C(F)(F)F)cc4)CC3)cc1)C2
IC50 (Cholinesterase): 0.214 µM
Ratio IC50 [23]: 1.4
IC50 (Acetylcholinesterase): 0.153 µM
inhibition [15]: 64.2%
Activity (umolequiv/umol) [19]: 1.72

COc1cc(/C=C/C(=O)CC(=O)/C=C/c2ccc(O)c(OC)c2)ccc1O
inhibition [26]: Active

COc1cc2c(cc1OC)C(=O)/C(=C/c1ccc(N3CCN(Cc4ccccc4)CC3)cc1)C2
IC50 (Cholinesterase): 0.088 µM
Ratio IC50 [23]: 0.03
IC50 (Acetylcholinesterase): 2.62 µM
inhibition [15]: 48.5%
Activity (umolequiv/umol) [19]: 1.69

COc1cc2c(cc1OC)C(=O)/C(=C/c1ccc(N3CCN(c4ccc(C)cc4C)CC3)cc1)C2
IC50 (Cholinesterase): 5.13 µM
Ratio IC50 [23]: 45.8
IC50 (Acetylcholinesterase): 0.112 µM
inhibition [15]: 65.7%
Activity (umolequiv/umol) [19]: 1.35

COc1cc2c(cc1OC)C(=O)/C(=C/c1ccc(N3CCN(C(=O)c4ccccc4)CC3)cc1)C2
IC50 (Cholinesterase): 0.365 µM
Ratio IC50 [23]: 0.2
IC50 (Acetylcholinesterase): 1.7 µM
inhibition [15]: 61.4%
Activity (umolequiv/umol) [19]: 2.31

COc1cc2c(cc1OC)C(=O)/C(=C/c1ccc(N3CCN(C(c4ccccc4)c4ccccc4)CC3)cc1)C2
IC50 (Cholinesterase): 4.89 µM
Ratio IC50 [23]: 59.6
IC50 (Acetylcholinesterase): 0.082 µM
inhibition [15]: 78.2%
IC50 [18]: 12.2 µM
Activity (umolequiv/umol) [19]: 1.41

COc1cc2c(cc1OC)C(=O)/C(=C/c1ccc(N3CCN(c4ccccn4)CC3)cc1)C2
IC50 (Cholinesterase): 1.74 µM
Ratio IC50 [23]: 16.5
IC50 (Acetylcholinesterase): 0.105 µM
inhibition [15]: 73.3%
Activity (umolequiv/umol) [19]: 2.08

COc1cc2c(cc1OC)C(=O)/C(=C/c1ccc(N3CCN(c4ccc(C)cc4)CC3)cc1)C2
IC50 (Cholinesterase): 1.85 µM
Ratio IC50 [23]: 9.5
IC50 (Acetylcholinesterase): 0.194 µM
inhibition [15]: 63.5%
Activity (umolequiv/umol) [19]: 1.3

COc1cc2c(cc1OC)C(=O)/C(=C/c1ccc(N3CCN(c4ccccc4)CC3)cc1)C2
IC50 (Cholinesterase): 5.98 µM
Ratio IC50 [23]: 4.5
IC50 (Acetylcholinesterase): 1.31 µM
inhibition [15]: 51.1%
Activity (umolequiv/umol) [19]: 0.64

COc1cc2c(cc1OC)C(=O)/C(=C/c1ccc(N3CCN(C(c4ccc(F)cc4)c4ccc(F)cc4)CC3)cc1)C2
IC50 (Cholinesterase): 3.01 µM
viability at 48 h, 25 µM [2]: 92.8%
Activity [3]: Dose-dependent effect
viability at 48 h, 10 µM [4]: 95.7%
Activity (SH-SY5Y [5]): Active
viability at 48 h, 50 µM [6]: 88.6%
Activity (SH-SY5Y [7]): Active
Ratio IC50 [23]: 67
IC50 (Acetylcholinesterase): 0.045 µM
Activity (SH-SY5Y [8]): Active
viability at 48 h, 100 µM [9]: 80.3%
Ratio IC50 [30]: 2.96
Activity (SH-SY5Y [11]): Active
inhibition [26]: Active
Activity (SH-SY5Y [31]): Active
Activity (SH-SY5Y [12]): Active
Activity (SH-SY5Y [13]): Active
inhibition [15]: 83.7%
Activity (SH-SY5Y [16]): Active
inhibition (SH-SY5Y [28]): Active
viability at 48 h, 1 µM [17]: 97.1%
IC50 [18]: 7.4 µM
Activity (umolequiv/umol) [19]: 2.98
viability at 48 h, 75 µM [20]: 84.3%
viability at 48 h, 5 µM [21]: 95.4%
Activity (SH-SY5Y [22]): Active

COc1cc2c(cc1OC)C(=O)/C(=C/c1ccc(N3CCN(c4ccc(Cl)cc4)CC3)cc1)C2
IC50 (Cholinesterase): 2.22 µM
Ratio IC50 [23]: 7.6
IC50 (Acetylcholinesterase): 0.291 µM
inhibition [15]: 59.5%
Activity (umolequiv/umol) [19]: 1.87

COc1cc2c(cc1OC)C(=O)/C(=C/c1ccc(N3CCN(Cc4ccc5c(c4)OCO5)CC3)cc1)C2
IC50 (Cholinesterase): 12.2 µM
Ratio IC50 [23]: 6.5
IC50 (Acetylcholinesterase): 1.86 µM
inhibition [15]: 64.5%
Activity (umolequiv/umol) [19]: 3.35

Reference: ChEMBL document CHEMBL3877279, “Design, synthesis, in-silico and biological evaluation of novel donepezil derivatives as multi-target-directed ligands for the treatment of Alzheimer's disease” (Eur J Med Chem, 2017)
